Laboratory results reported in publication PMC12116762, “Topobexin targets the Topoisomerase II ATPase domain for beta isoform-selective inhibition and anthracycline cardioprotection” (Nature Communications, 2025).
Where “and” joins values, the source holds several entries; their conditions need not be identical. Equal values may be shown once.

Legend:
recombinant human TOP2B = molecular target: T1, recombinant human TOP2B (Homo sapiens, UniProt Q02880); assay: DNA decatenation assay, recombinant TOP2B; assay type: biochemical
T1 construct: Using recombinant full-length human TOP2A and TOP2B enzymes; YFP (N, cleaved yes); made in house; host or cells: HEK293F
Experimental: The human topoisomerase II decatenation assay was performed to determine the inhibitory effects of BNS-22 and new compounds as previously described with minor modifications[14],[36]. The assay was performed using recombinant human TOP2A or TOP2B generated using the HEK293F YFP-tag expression system as previously described[18],[19],[36]. Briefly, plasmids encoding YFP-TOP2A or YFP-TOP2B were transfected into HEK293F cells (Catalog number 11625019, Thermofisher Scientific), and TOP2 proteins were isolated from cell lysates by anti-YFP nanobody affinity chromatography. After elution by TEV protease cleavage, TOP2 proteins were FPLC purified by sequential cation exchange and size exclusion chromatography. Plasmid encoding TOP2B C88Y was generated by round-the-horn PCR mutagenesis and the sequence was verified by full-plasmid sequencing. Purified TOP2 proteins were stored in a storage buffer containing 20 mM HEPES pH 7.5, 500 mM NaCl, 0.5 mM TCEP, 25% (v/v) glycerol at -80 °C. For decatenation assays, purified TOP2 proteins were incubated with 200 ng kDNA (Topogen) in a reaction buffer containing 50 mM Tris−HCl (pH 8), 100 mM NaCl, 10 mM MgCl2, 0.5 mM DTT, 2 mM ATP, 0.1 mM tris(2-carboxyethyl)phosphine (TCEP), 5% (v/v) glycerol, 70 μg/mL bovine serum albumin, and 1/10 volume of each compound diluted in 10% DMSO (final DMSO concentration 1%) for 40 min at 37 °C. The reaction was then stopped by the addition of gel loading buffer (0.5 volumes of 60% (w/v) glycerol, 60 mM EDTA, 20 mM Tris−HCl (pH 7.5), 0.5 mg/mL bromophenol blue) and the samples were placed on ice. Reaction products were resolved by agarose gel electrophoresis in TBE buffer containing GelRed stain (Biotium). Gels were visualized using an iBright CL1000 (Thermofisher Scientific). Band intensities were quantified using FIJI, and the signal of the treated samples was normalized to the value of the control (untreated sample; 100%) present on the same gel. The normalized signal of three independent measurements was then expressed as mean ± SD. Each presented data point was obtained from distinct sample. Normalized values were plotted as a function of inhibitor concentration to determine IC50 values by nonlinear regression with variable slope using Prism 9 (GraphPad).

[1] = system: neonatal rat ventricular cardiomyocytes (NVCM); assay: Protection against DAU-induced cytotoxicity (LDH release) in NVCM; assay type: cell-based; details: for LDH release: independent replicates
Summary of the method: (§1)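 Primary neonatal Wistar rat cardiomyocytes in serum- and pyruvate-free DMEM/F12 were pretreated with compound 3 h, then co-incubated 3 h with DAU (1.2 µM), or without DAU for inherent toxicity, then given a 48 h drug-free follow-up. Medium LDH activity (NAD+ reduction at 340 nm) expressed as % of total LDH.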

[2] = system: neonatal rat ventricular cardiomyocytes (NVCM); assay: Inherent toxicity (LDH release) in NVCM; assay type: cell-based; design: key to LDH release (inherent toxicity), mean of independent replicates: % of total LDH activity; details: for LDH release (inherent toxicity), mean of independent replicates: Suppl.Fig.6c
Summary of the method: as §1

T1 sequence (Q02880 1-1621 isoform Q02880-2): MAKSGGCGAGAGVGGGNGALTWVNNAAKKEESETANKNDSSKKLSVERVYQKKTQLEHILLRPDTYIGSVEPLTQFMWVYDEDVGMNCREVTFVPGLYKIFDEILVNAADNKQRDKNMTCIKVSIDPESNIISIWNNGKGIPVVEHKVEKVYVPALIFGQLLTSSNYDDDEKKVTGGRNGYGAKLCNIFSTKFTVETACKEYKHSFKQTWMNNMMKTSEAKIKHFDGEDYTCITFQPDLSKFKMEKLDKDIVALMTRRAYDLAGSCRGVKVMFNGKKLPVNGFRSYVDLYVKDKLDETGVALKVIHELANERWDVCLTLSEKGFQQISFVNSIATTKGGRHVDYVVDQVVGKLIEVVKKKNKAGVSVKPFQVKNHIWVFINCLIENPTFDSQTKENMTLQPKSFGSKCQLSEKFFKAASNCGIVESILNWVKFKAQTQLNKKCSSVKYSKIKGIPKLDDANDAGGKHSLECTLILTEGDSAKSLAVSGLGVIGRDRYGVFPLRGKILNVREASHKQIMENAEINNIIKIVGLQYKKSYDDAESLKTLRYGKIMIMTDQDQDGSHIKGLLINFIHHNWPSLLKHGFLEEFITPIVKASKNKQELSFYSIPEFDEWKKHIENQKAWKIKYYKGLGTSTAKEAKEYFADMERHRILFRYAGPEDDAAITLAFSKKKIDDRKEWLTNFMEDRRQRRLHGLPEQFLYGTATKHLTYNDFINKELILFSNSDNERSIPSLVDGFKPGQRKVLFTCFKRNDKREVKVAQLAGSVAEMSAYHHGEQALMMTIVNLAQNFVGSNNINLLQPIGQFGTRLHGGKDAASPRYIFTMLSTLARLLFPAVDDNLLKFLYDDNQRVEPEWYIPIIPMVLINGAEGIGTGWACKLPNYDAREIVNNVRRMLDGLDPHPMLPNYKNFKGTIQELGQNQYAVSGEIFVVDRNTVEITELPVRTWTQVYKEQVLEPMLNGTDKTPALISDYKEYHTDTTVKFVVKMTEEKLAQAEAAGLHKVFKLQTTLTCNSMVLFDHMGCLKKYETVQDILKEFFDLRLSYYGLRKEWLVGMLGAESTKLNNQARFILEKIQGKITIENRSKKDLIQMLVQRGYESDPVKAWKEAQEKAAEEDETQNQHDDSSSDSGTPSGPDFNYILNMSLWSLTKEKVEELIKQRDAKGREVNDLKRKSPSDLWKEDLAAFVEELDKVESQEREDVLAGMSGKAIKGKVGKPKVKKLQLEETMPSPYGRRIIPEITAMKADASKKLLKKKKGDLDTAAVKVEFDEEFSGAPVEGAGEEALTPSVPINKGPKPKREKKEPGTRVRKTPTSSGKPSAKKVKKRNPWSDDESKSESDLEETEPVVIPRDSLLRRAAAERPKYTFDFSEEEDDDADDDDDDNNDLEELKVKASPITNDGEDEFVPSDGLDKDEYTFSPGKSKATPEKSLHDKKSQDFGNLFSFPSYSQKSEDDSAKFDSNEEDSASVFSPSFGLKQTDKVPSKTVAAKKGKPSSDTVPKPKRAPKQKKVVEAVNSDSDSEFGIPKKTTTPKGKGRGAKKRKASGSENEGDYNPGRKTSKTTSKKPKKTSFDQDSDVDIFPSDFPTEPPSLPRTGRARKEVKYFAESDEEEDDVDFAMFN

Compound: CCCc1cc(=O)oc2c(C(=O)N3CCCc4ccccc43)c(OCCN3CCN(C)CC3)ccc12 [topobexin (9)]
- remaining activity at 0.039 µM (recombinant human TOP2B; 0.039 μM, independent replicates, read-out: Normalized % TOP2B activity, decatenation): 92.3%
- remaining activity at 0.313 µM (recombinant human TOP2B; 0.313 μM, independent replicates, read-out: Normalized % TOP2B activity, decatenation): 29.3%
- remaining activity at 0.625 µM (recombinant human TOP2B; 0.625 μM, independent replicates, read-out: Normalized % TOP2B activity, decatenation): 15.5%
- remaining activity at 1.25 µM (recombinant human TOP2B; 1.250 μM, independent replicates, read-out: Normalized % TOP2B activity, decatenation): 10.9%
- remaining activity at 2.5 µM (recombinant human TOP2B; 2.500 μM, independent replicates, read-out: Normalized % TOP2B activity, decatenation): 11.1%
- remaining activity at 5 µM (recombinant human TOP2B; 5.000 μM, independent replicates, read-out: Normalized % TOP2B activity, decatenation): 9.87%
- remaining activity at 20 µM (recombinant human TOP2B; 20.000 μM, independent replicates, read-out: Normalized % TOP2B activity, decatenation): 5.03%
- SRbeta (SRTOP2B), decatenation activity (recombinant human TOP2B; TOP2A IC50 divided by TOP2B IC50): 25
- IC50 (recombinant human TOP2B; enzyme expressed in HEK293F, n=3): 190 nM
- concentration providing significant cardioprotection ([1]; NVCM, DAU 1.2 µM): ≥ 1 µM
- minimal effective concentration ([1]; Rattus norvegicus, Cardiomyocyte, NVCM, protection against DAU 1.2 µM, n=4, read-out: LEC = lowest effective concentration): 1 µM
- LDH release, mean ([1]; compound 0.01 µM + DAU 1.2 µM): 39.6717 % of total LDH
- LDH release (protection against DAU), mean of independent replicates ([1]; compound 0.01 µM + DAU 1.2 µM, NVCM, Suppl.Fig.6b): 39.6717
- LDH release ([1]; compound 0.01 µM + DAU 1.2 µM): 48.3922 % of total LDH and 39.9759 % of total LDH and 35.5793 % of total LDH and 34.7393 % of total LDH
- LDH release, mean ([1]; compound 0.1 µM + DAU 1.2 µM): 37.5382 % of total LDH
- LDH release (protection against DAU), mean of independent replicates ([1]; compound 0.1 µM + DAU 1.2 µM, NVCM, Suppl.Fig.6b): 37.5382
- LDH release (protection against DAU), mean of independent replicates ([1]; compound 0.1 µM + DAU 1.2 µM, NVCM, Suppl.Fig.8a): 42.825
- LDH release ([1]; compound 0.1 µM + DAU 1.2 µM): 40.1489 % of total LDH and 41.381 % of total LDH and 32.4516 % of total LDH and 36.1711 % of total LDH
- LDH release, mean ([1]; compound 1 µM + DAU 1.2 µM): 29.7613 % of total LDH
- LDH release (protection against DAU), mean of independent replicates ([1]; compound 1 µM + DAU 1.2 µM, NVCM, Suppl.Fig.6b): 29.7613
- LDH release (protection against DAU), mean of independent replicates ([1]; compound 1 µM + DAU 1.2 µM, NVCM, Suppl.Fig.8a): 37.7816
- LDH release ([1]; compound 1 µM + DAU 1.2 µM): 32.8929 % of total LDH and 30.456 % of total LDH and 27.486 % of total LDH and 28.2102 % of total LDH
- LDH release, mean ([1]; compound 10 µM + DAU 1.2 µM): 24.2662 % of total LDH
- LDH release (protection against DAU), mean of independent replicates ([1]; compound 10 µM + DAU 1.2 µM, NVCM, Suppl.Fig.6b): 24.2662
- LDH release (protection against DAU), mean of independent replicates ([1]; compound 10 µM + DAU 1.2 µM, NVCM, Suppl.Fig.8a): 30.0056
- LDH release ([1]; compound 10 µM + DAU 1.2 µM): 28.5774 % of total LDH and 24.8184 % of total LDH and 21.0698 % of total LDH and 22.5992 % of total LDH
- LDH release, mean ([1]; compound 30 µM + DAU 1.2 µM): 25.2224 % of total LDH
- LDH release (protection against DAU), mean of independent replicates ([1]; compound 30 µM + DAU 1.2 µM, NVCM, Suppl.Fig.6b): 25.2224
- LDH release ([1]; compound 30 µM + DAU 1.2 µM): 28.8537 % of total LDH and 23.9613 % of total LDH and 20.3957 % of total LDH and 27.679 % of total LDH
- LDH release, mean ([1]; compound 100 µM + DAU 1.2 µM): 26.7487 % of total LDH
- LDH release (protection against DAU), mean of independent replicates ([1]; compound 100 µM + DAU 1.2 µM, NVCM, Suppl.Fig.6b): 26.7487
- LDH release (protection against DAU), mean of independent replicates ([1]; compound 100 µM + DAU 1.2 µM, NVCM, Suppl.Fig.8a): 32.5863
- LDH release ([1]; compound 100 µM + DAU 1.2 µM): 31.0584 % of total LDH and 27.7033 % of total LDH and 21.5053 % of total LDH and 26.728 % of total LDH
- lowest concentration with statistically significant cytoprotective effects ([1]; side-by-side comparison with dexrazoxane (Supp Fig 8a)): 0.1 µM
- LTC = lowest toxic concentration ([2]; NVCM, compound alone, n=4): > 100 µM
- LDH release, mean ([2]; compound 100 µM alone): 16.49 % of total LDH
- LDH release ([2]; compound 100 µM alone, independent replicates): 16.0714 % of total LDH and 14.563 % of total LDH and 13.722 % of total LDH and 21.6038 % of total LDH
- LDH release (inherent toxicity), mean of independent replicates ([2]; compound alone 0.01 µM, NVCM): 15.0001
- LDH release (inherent toxicity), mean of independent replicates ([2]; compound alone 0.1 µM, NVCM): 13.7512
- LDH release (inherent toxicity), mean of independent replicates ([2]; compound alone 1 µM, NVCM): 12.2924
- LDH release (inherent toxicity), mean of independent replicates ([2]; compound alone 10 µM, NVCM): 14.4604
- LDH release (inherent toxicity), mean of independent replicates ([2]; compound alone 30 µM, NVCM): 15.0547
- LDH release (inherent toxicity), mean of independent replicates ([2]; compound alone 100 µM, NVCM): 16.49
